Results on 13 molecules are retold here after a melting point compilation (Tetko et al.; mined from patent text by program, amines drawn as free bases though some values may be those of a salt).

For the molecule `CC(C)(C)OC(=O)NN=Cc1ccccc1`, the melting point lay within 184 to 186 °C.
For the molecule `CC(=O)N1CCN=C1Nc1cc(C)nn1Cc1ccccc1`, the melting point lay in the range of 148 to 149 °C.
For `CSc1nc(N)n(C(=O)c2ccc(Cl)cc2)n1`, the melting point is 175 to 177 °C.
`COc1cc(OC)c2c(=O)[nH]c(-c3cc(C)c(OCCN(C)C)c(C)c3)cc2c1` registered a melting point of 261 to 263 °C.
`CCc1cc(NC(=O)N2CCc3cc(OC)c(C(F)(F)F)cc32)cc(-c2cccnc2)c1` returned a melting point of 205 to 207 °C.
Next, `CCc1cccc2c3c([nH]c12)C(CC)(CCOC)OCC3` (stereo not drawn): 125 to 126 °C; `CC(C)c1cc(-c2cc(C(=O)O)ccc2S(C)(=O)=O)on1`: 176 to 178 °C; `Cc1cc(C#N)cc(C(=O)c2c(C(C)C)c(=O)[nH]c(=O)n2C(C)C)c1`: 278 to 280 °C.
Next, `N#CSc1ccc(C=O)cc1`: 82 to 83 °C.
With `Cc1ccc(S(=O)(=O)N(CCN=[N+]=[N-])CCN=[N+]=[N-])cc1`, the melting point lay in the range of 47 to 48 °C.
The result for `CCC1c2cccn2-c2cc(F)c(F)cc2N1S(=O)(=O)c1ccc(O)cc1` (stereo not drawn) reads 177 to 179 °C; that for `COC(=O)c1cccc(OS(=O)(=O)C(F)(F)F)c1O`, 91.8 to 92.3 °C; that for `O=C(NCc1ccccc1)c1nn(-c2ccc(Cl)cc2)c2c1C1CCC2C1` (stereo not drawn), 112 to 115 °C.

For orientation: melting point means the temperature, or range, at which the solid turns liquid.
